Reference: publication PMC7343802, “The development of the dog heartworm is highly sensitive to sterols which activate the orthologue of the nuclear receptor DAF-12” (Scientific Reports, 2020)

Columns and labels:
[1] = test system: D. immitis iL3 larvae; assay: in vitro molting of infective third-stage larvae (iL3) into L4; assay type: cell-based, Dirofilaria immitis
[2] = target: CelDAF-12 (Caenorhabditis elegans, UniProt G5EFF5); assay: cell-based
Sequence of CelDAF-12 (G5EFF5 516-753): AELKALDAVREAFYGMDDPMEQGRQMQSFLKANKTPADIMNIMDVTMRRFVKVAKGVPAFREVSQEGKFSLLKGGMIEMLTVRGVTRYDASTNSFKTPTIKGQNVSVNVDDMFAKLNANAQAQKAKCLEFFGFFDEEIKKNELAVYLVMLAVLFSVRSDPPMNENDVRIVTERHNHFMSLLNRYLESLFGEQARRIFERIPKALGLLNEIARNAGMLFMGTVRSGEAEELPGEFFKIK

Q: How did the “number of free cuticles (completed molt, L4) versus DMSO control” value [1] turn out when CC(CCCC(C)C1CCC2C3=CCC4CC(=O)CCC4(C)C3CCC21C)C(=O)O [Δ7-DA, (25S)-Δ7-dafachronic acid] was run?
A: Its value is “significantly higher”.

Q: And the “start of the molting process (day in culture)” value [1]?
A: Its value is 3 to 4 days.

Q: And the “overall effect on molting of iL3 into L4” value ([1]; 10 µM)?
A: Its value is “induced a rapid development of iL3 into L4”.

Q: What about the “percentage of iL3 which had initiated but not completed the molt, compared to DMSO control” value ([1]; 10 µM, day 5 or 6) of the same compound?
A: Its value is “low percentage”.

Q: And the EC50 [2]?
A: Its EC50 is 0.016 µM.
